The results in this text go back to paper PMC6458995, “MAP4K4 Inhibition Promotes Survival of Human Stem Cell-Derived Cardiomyocytes and Reduces Infarct Size In Vivo” (Cell Stem Cell, 2019).

By residual activity is commonly meant the signal under treatment as a percentage of the control signal.

What all share (experiment): Dundee kinase panel
Common to all, as to assay type: biochemical
Common to all, as to settings: for remaining activity at 1 µM: read-out: residual activity

For one test, the target named is T1, OSR1 (Homo sapiens, UniProt O95747).
T1 construct: lines 1-140) and Reaction Biology
On the procedure:
(§1) Compounds were screened at 1 μM. For key hits, pIC50 values were then determined by HTRF as above. […] Stability in mouse and human liver microsomes was determined by Cyprotex.

A further test addresses T2, MNK2 (Homo sapiens, UniProt Q9HBH9).
T2 construct: lines 1-140) and Reaction Biology
How it is done:
as §1

In the next test the target is T3, MLK1 (Homo sapiens, UniProt P80192).
T3 construct: lines 1-140) and Reaction Biology
How it is done:
as §1

The next test concerns the target T4, SIK3 (Homo sapiens, UniProt Q9Y2K2).
T4 construct: lines 1-140) and Reaction Biology
On the procedure:
as §1

A further test addresses T5, p38a MAPK (Homo sapiens, UniProt Q16539).
T5 construct: lines 1-140) and Reaction Biology
How it is done:
as §1

Another test addresses T6, EPH-B3 (Homo sapiens, UniProt P54753).
T6 construct: lines 1-140) and Reaction Biology
T6 sequence (P54753 34-998): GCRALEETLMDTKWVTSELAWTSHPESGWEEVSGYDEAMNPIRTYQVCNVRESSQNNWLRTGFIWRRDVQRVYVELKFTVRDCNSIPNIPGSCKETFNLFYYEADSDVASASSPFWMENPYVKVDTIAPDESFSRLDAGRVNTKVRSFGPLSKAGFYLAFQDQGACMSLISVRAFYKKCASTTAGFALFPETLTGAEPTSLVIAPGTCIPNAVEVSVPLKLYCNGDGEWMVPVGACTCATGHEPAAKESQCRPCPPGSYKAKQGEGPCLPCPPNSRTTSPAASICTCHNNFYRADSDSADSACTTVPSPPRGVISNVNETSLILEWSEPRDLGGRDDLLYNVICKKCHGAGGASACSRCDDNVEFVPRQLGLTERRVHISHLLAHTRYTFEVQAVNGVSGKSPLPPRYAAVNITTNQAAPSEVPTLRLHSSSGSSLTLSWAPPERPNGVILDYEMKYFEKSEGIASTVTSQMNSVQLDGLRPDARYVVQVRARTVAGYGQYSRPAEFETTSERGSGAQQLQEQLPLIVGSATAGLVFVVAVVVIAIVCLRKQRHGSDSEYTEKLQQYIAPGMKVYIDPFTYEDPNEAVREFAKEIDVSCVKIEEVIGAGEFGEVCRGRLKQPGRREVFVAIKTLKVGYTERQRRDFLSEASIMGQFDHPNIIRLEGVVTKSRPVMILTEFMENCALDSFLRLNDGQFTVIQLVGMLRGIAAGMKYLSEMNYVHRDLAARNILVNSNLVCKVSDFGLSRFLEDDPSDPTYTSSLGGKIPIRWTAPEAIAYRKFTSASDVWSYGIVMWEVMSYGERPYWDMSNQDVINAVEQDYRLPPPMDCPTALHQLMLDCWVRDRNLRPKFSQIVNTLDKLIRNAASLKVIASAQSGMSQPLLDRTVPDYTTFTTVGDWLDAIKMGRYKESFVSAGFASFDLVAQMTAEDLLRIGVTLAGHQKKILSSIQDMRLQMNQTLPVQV
On the procedure:
as §1

A further test deals with T7, HER4 (Homo sapiens, UniProt Q15303).
T7 construct: lines 1-140) and Reaction Biology
On the procedure: as §1

The target of a further test is T8, CHK1 (Homo sapiens, UniProt O14757).
T8 construct: lines 1-140) and Reaction Biology
T8 sequence (O14757 1-476): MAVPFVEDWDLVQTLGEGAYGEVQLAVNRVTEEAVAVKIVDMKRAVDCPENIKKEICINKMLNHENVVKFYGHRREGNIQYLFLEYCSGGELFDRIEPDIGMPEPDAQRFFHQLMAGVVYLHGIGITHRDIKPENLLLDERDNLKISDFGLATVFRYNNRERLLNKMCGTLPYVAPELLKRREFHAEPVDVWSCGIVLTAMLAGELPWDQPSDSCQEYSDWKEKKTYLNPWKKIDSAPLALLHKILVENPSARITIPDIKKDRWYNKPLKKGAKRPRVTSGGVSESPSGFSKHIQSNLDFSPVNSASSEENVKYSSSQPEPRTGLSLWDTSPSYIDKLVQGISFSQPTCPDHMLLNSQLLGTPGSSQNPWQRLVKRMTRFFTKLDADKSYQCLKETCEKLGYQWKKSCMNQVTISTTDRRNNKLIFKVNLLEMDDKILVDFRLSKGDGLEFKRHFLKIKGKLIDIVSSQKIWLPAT
On the procedure: as §1

Another test has as its target T9, TRKA (Homo sapiens, UniProt P04629).
T9 construct: lines 1-140) and Reaction Biology
On the procedure: as §1

The target of the next test is T10, WNK1 (Homo sapiens, UniProt Q9H4A3).
T10 construct: lines 1-140) and Reaction Biology
On the procedure:
as §1

A further test addresses T11, BTK (Homo sapiens, UniProt Q06187).
T11 construct: lines 1-140) and Reaction Biology
How it is done:
as §1

Another test deals with T12, PIM3 (Homo sapiens, UniProt Q86V86).
T12 construct: lines 1-140) and Reaction Biology
On the procedure: as §1

Another test deals with T13, BRK (Homo sapiens, UniProt Q13882).
T13 construct: lines 1-140) and Reaction Biology
On the procedure: as §1

For another test, the target named is T14, CK1γ2 (Homo sapiens, UniProt P78368).
T14 construct: lines 1-140) and Reaction Biology
How it is done: as §1

The target of the next test is T15, TESK1 (Homo sapiens, UniProt Q15569).
T15 construct: lines 1-140) and Reaction Biology
How it is done: as §1

In another test the target is T16, SYK (Homo sapiens, UniProt P43405).
T16 construct: lines 1-140) and Reaction Biology
How it is done:
as §1

T1 sequence (O95747 whole entry): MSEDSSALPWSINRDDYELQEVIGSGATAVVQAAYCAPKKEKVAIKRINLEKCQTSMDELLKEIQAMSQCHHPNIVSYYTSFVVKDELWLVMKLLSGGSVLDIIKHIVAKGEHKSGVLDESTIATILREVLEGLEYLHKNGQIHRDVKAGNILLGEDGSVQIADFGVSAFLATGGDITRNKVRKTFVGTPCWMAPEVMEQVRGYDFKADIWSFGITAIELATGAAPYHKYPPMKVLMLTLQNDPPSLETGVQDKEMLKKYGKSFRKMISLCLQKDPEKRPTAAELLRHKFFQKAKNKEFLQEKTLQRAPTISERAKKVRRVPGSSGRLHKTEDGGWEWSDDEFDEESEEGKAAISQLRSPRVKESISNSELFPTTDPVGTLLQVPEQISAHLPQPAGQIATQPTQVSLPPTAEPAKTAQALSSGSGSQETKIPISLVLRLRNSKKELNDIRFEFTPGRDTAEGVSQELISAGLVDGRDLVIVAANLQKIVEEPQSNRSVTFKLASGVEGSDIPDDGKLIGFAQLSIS
T4 sequence (Q9Y2K2 whole entry): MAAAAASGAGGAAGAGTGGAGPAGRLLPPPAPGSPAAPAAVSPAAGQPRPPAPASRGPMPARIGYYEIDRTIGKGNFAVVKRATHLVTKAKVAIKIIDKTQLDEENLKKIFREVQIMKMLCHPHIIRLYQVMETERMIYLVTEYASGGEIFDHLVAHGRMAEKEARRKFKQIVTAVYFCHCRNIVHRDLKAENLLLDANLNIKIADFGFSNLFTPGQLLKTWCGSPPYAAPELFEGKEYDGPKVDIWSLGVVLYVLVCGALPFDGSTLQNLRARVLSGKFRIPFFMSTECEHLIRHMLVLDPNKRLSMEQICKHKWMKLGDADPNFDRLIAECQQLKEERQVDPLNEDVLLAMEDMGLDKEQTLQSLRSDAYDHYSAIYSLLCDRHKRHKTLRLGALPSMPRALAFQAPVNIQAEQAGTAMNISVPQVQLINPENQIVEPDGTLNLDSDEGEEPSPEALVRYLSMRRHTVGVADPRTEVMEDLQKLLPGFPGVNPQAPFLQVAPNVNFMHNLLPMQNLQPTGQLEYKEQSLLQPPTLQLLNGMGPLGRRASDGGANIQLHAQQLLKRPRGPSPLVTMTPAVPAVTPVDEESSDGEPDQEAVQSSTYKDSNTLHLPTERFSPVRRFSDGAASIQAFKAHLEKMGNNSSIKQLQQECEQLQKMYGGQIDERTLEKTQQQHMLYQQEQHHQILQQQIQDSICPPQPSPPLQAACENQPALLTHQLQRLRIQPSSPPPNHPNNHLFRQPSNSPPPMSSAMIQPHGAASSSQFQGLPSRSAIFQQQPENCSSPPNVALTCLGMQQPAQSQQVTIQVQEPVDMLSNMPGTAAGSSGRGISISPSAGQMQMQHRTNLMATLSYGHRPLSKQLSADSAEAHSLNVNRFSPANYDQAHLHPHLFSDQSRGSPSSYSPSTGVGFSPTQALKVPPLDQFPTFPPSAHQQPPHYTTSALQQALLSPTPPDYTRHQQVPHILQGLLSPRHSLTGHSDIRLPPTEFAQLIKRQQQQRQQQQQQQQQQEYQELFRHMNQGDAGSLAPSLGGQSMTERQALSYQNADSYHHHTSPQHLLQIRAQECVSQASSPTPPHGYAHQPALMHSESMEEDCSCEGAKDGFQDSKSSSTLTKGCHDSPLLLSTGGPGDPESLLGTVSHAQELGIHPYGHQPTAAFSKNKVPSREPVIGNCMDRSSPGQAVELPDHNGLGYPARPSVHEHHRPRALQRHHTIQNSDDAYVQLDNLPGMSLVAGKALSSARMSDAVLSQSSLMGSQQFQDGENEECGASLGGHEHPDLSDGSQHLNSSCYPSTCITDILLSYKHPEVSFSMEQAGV
T3 sequence (P80192 whole entry): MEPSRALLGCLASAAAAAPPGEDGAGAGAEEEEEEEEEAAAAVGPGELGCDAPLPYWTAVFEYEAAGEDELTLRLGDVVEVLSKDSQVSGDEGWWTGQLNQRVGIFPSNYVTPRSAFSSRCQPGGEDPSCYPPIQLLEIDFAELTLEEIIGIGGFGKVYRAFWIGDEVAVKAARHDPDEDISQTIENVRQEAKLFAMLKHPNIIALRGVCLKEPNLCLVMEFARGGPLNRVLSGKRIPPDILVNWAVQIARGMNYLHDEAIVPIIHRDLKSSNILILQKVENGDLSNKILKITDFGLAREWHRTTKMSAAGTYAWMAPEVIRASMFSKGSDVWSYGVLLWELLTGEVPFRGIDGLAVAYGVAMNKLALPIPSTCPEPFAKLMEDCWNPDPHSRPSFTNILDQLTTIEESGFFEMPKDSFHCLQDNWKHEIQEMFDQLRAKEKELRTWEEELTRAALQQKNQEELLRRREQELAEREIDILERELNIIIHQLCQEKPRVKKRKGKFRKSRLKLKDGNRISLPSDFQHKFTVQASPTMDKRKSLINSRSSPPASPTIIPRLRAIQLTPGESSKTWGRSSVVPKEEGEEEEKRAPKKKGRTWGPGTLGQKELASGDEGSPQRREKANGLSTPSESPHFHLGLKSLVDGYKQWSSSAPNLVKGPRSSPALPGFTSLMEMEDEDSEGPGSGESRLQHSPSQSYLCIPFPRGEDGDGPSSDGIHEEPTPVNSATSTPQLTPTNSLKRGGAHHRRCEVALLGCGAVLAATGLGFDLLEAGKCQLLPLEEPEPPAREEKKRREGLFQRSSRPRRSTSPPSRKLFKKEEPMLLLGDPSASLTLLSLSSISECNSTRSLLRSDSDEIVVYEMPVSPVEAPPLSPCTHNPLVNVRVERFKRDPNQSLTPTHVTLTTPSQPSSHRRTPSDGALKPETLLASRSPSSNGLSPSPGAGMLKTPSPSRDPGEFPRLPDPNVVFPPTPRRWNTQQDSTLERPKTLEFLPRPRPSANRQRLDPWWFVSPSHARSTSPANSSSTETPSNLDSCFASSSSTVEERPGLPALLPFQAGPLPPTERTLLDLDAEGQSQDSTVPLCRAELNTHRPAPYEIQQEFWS
T15 sequence (Q15569 whole entry): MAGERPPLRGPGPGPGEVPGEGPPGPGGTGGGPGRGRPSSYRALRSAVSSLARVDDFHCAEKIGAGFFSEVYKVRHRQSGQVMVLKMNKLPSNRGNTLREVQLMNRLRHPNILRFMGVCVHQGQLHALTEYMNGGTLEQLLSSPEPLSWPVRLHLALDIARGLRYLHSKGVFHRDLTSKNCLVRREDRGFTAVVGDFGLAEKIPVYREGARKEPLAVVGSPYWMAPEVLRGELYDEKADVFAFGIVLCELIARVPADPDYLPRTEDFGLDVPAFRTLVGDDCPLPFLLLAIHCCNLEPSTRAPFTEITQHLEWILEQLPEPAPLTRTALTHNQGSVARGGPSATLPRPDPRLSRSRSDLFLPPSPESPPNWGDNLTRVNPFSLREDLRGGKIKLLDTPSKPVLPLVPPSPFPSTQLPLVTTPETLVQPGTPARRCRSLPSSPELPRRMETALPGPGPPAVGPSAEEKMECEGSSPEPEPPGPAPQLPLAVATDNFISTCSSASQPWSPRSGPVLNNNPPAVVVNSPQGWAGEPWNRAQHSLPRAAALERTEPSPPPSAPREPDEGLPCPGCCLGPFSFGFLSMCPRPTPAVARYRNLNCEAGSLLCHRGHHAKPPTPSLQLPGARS
T5 sequence (Q16539 whole entry): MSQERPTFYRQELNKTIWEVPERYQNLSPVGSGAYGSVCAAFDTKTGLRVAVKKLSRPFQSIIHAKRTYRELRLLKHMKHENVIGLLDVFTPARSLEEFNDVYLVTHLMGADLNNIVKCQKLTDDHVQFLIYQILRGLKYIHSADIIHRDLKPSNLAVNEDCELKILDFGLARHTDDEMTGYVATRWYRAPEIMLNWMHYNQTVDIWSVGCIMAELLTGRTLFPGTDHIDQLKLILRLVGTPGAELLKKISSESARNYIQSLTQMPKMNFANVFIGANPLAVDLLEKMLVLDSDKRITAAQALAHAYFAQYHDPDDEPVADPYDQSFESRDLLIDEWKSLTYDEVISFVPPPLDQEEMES
T11 sequence (Q06187 whole entry): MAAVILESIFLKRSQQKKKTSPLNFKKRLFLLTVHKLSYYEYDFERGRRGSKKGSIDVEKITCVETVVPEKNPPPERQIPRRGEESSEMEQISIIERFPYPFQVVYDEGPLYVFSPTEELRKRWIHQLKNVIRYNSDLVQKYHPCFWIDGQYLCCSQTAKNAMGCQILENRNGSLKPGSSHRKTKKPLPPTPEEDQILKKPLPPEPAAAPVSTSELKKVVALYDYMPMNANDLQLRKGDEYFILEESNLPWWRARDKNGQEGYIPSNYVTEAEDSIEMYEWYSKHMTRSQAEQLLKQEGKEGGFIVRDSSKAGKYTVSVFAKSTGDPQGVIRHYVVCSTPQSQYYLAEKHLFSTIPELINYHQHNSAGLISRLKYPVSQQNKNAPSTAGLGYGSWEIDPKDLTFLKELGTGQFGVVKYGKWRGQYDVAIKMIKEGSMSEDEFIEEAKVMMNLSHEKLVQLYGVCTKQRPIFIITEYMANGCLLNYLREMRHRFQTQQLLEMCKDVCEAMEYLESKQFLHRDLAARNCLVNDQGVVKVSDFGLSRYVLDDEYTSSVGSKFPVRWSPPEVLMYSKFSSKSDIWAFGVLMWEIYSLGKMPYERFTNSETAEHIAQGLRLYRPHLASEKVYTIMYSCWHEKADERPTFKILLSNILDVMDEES
T2 sequence (Q9HBH9 whole entry): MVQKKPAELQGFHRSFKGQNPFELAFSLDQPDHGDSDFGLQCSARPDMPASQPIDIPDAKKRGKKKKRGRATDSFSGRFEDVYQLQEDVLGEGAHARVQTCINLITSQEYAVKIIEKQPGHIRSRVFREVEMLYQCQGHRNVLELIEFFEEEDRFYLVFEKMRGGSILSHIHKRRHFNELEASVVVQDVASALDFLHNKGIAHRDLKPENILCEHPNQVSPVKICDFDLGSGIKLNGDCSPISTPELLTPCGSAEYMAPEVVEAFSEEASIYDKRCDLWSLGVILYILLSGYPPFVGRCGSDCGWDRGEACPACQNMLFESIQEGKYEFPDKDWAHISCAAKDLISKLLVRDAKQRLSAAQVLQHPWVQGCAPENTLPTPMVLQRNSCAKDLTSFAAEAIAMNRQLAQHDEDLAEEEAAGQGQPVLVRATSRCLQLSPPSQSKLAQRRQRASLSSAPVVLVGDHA

As to `O=C1Nc2ccc(I)cc2/C1=C/c1cc(Br)c(O)c(Br)c1` [GW5074], the remaining activity at 1 µM on OSR1 was found to be 24%; at MNK2, 95%; at MLK1 it was 85%; at SIK3, 65%; on p38a MAPK, 49%; at EPH-B3, 94%. Moreover, the remaining activity at 1 µM at HER4 was 68%; on CHK1, 33%; on TRKA, 51%; at WNK1, 94%; on BTK it was 75%; on PIM3, 6%. Moreover, the remaining activity at 1 µM on BRK worked out at 77%; at CK1γ2, 68%; on TESK1, 32%; on SYK, 72%.
For `Nc1ncc(C(=O)NC2CN(C(=O)C3CC3)C2)c2ccc(-c3cccc(F)c3)nc12` [GNE-495], the residual activity at OSR1 (1 μM) was 109%; at MNK2 (1 μM), 64%; at MLK1 (1 μM), 25%; on SIK3 (1 μM), 87%; at p38a MAPK (1 μM) it was 95%; on EPH-B3 (1 μM), 87%. For the same compound, the residual activity on HER4 (1 μM) came out at 98%; at CHK1 (1 μM), 93%; on TRKA (1 μM), 68%; on WNK1 (1 μM) it was 102%; at BTK (1 μM) it was 82%; at PIM3 (1 μM) it was 87%. For the same compound, the residual activity on BRK (1 μM) was found to be 94%; on CK1γ2 (1 μM), 107%; on TESK1 (1 μM) it was 72%; at SYK (1 μM), 94%.
Regarding `Oc1ncnc2c1c(-c1ccccc1)cn2-c1ccccc1` [F1386-0303, 5,7-diphenyl-7H-pyrrolo[2,3-d]pyrimidin-4-ol], the remaining activity at 1 µM on OSR1 turned out to be 102%; at MNK2, 109%; at MLK1, 43%; on SIK3, 110%; on p38a MAPK it was 78%; at EPH-B3 it was 104%. Besides, the remaining activity at 1 µM on HER4 came to 82%; at CHK1 it was 98%; at TRKA, 89%; on WNK1, 109%; at BTK, 130%; at PIM3 it was 74%. Further, the remaining activity at 1 µM at BRK was 108%; at CK1γ2, 106%; at TESK1, 101%; on SYK, 112%.
As for `COCCOc1ccc(-c2cn(-c3ccccc3)c3nc[nH]c(=O)c23)cc1` [DMX-5804, 5-[4-(2-methoxy-ethoxy)-phenyl]-7-phenyl-3,7-dihydro-pyrrolo[2,3-d]pyrimidin-4-one], the remaining activity at 1 µM is 128% at OSR1; 111% on MNK2; 9% at MLK1; 90% on SIK3; 96% on p38a MAPK; 96% on EPH-B3. Also, the remaining activity at 1 µM on HER4 stood at 106%; on CHK1 it was 86%; at TRKA it was 74%; on WNK1, 106%; at BTK it was 118%; on PIM3, 88%. Further, the remaining activity at 1 µM at BRK came out at 88%; on CK1γ2, 103%; on TESK1, 90%; on SYK, 96%.
`O=C1Cc2c([nH]c3ccc(Br)cc23)-c2ccccc2N1` [Kenpaullone]: the remaining activity at 1 µM at OSR1 was found to be 52%; at MNK2 it was 125%; at MLK1, 99%; at SIK3, 12%; on p38a MAPK, 94%; at HER4, 85%. The remaining activity at 1 µM was 68% at CHK1; 92% at WNK1; 64% at BTK; 103% on PIM3; 97% at BRK; 81% at CK1γ2. In addition, the remaining activity at 1 µM was 19% on TESK1 and 87% on SYK.
